Series [1] is described as follows: Volume of distribution at steady state in C57BL/6 mouse at 1 mg/kg, iv and 2 mg/kg, po. The series is classed as ADME, organism-based. As to conditions: in vivo, read-out: Vdss.
Series [2] can be described thus: Bioavailability in C57BL/6 mouse at 1 mg/kg, iv and 2 mg/kg, po. As to conditions: in vivo. The series is classed as ADME, organism-based.
Series [3] can be described thus: Plasma clearance in C57BL/6 mouse at 1 mg/kg, iv and 2 mg/kg, po. The format is ADME, organism-based.
A short description of series [4]: Plasma half life in C57BL/6 mouse at 1 mg/kg, iv and 2 mg/kg, po. The series is classed as ADME, organism-based.
The subject of series [5] is Mus musculus. Description: Toxicity in C57B1/6 mouse assessed as cutaneous flushing at 30 mg/kg after 15 mins by laser doppler method. The series is classed as organism-based. Further details: dose 30 mg/kg. As to conditions: in vivo.
Series [6] has as its system Mus musculus. Description: Reduction in plasma free fatty acid level in C57B1/6 mouse at 10 mg/kg after 15 mins. The series is classed as functional. Set-up: scale not given: the % may be the effect or the level left.

Molecules are shown by their SMILES.

As to `CCCC1Cc2[nH]nc(-c3nnn[nH]3)c2C1` (stereo unspecified), in series [1], the Vd was found to be 1.55 L/kg. In addition, in series [2], the bioavailability was 51%. Further, the clearance in series [3] amounted to 30 mL/min/kg. In addition, in series [4], the half-life is 2.9 h.
On to `Fc1cccc(C2Cc3[nH]nc(-c4nnn[nH]4)c3C2)c1` (stereo unspecified), for which, in series [1], the Vd came to 1.79 L/kg. The bioavailability in series [2] turned out to be 57%. For the same molecule, the clearance in series [3] came to 47 mL/min/kg. The molecule also gave a half-life in series [4] of 1.8 h.
Consider `CCCCC1Cc2[nH]nc(-c3nnn[nH]3)c2C1` (stereo in doubt; 8d), for which the Vd in series [1] is 0.7 L/kg. This molecule came in with a bioavailability in series [2] of 34%. The clearance in series [3] worked out at 21 mL/min/kg. The molecule also gave a half-life in series [4] of 1.5 h.
Turning to `Fc1cc(F)c(F)c(C2Cc3[nH]nc(-c4nnn[nH]4)c3C2)c1` (stereo in doubt; 9o), the Vd in series [1] amounted to 1.1 L/kg. Moreover, the Activity result in series [5] is listed as “Non-toxic”; in series [6], 24%. Further, the bioavailability in series [2] amounted to 10%. Moreover, the clearance in series [3] worked out at 27 mL/min/kg. This molecule also had a half-life in series [4] of 2.4 h.
With `O=C(O)c1cccnc1` [NIACIN], the Vd in series [1] worked out at 1 L/kg. Further, in series [2], the bioavailability turned out to be 100%. The molecule also returned a clearance in series [3] of 145 mL/min/kg.

What is called bioavailability is dose-corrected exposure relative to a reference, in per cent. Usually half-life stands for the time needed for the level to fall by half in the phase considered.

(Values after ChEMBL document CHEMBL1154002, “GPR109a agonists. Part 1: 5-Alkyl and 5-aryl-pyrazole-tetrazoles as agonists of the human orphan G-protein coupled receptor GPR109a” (Bioorg Med Chem Lett, 2009).)
